Source: patent US8003659B2, “Macrocyclic serine protease inhibitors” (Indenix Pharmaceuticals, Inc., priority 2008, dated 2011)

How the values were obtained:
[1] = Cytotoxicity evaluation (Cell Titer 96 AQueous One Solution Cell Proliferation Assay); type: cell-based; conditions: human; GS4.1 cells, cellular viability
Method: For cytotoxicity evaluation, GS4.1 cells were treated with compounds as described above and cellular viability was monitored using the Cell Titer 96 AQueous One Solution Cell Proliferation Assay (Promega). CC50 values were determined from the % cytotoxicity versus concentration data with Tecan Magellan software as described above.

[2] = test system: Huh-7 cells containing HCV Con1 subgenomic replicon (GS4.1 cells); test: HCV Replicon Assay (NS4A ELISA); type: cell-based; conditions: Hepatitis C virus, Huh-7, 72 hr, NS4A protein by ELISA
Method: General procedure: Huh-7 cells containing HCV Con1 subgenomic replicon (GS4.1 cells) were grown in Dulbecco's Modified Eagle Medium (DMEM) supplemented with 10% fetal bovine serum (FBS), 2 mM L-glutamine, 110 mg/L sodium pyruvate, 1× non-essential amino acids, 100 U/mL penicillin-streptomycin, and 0.5 mg/mL G418 (Invitrogen). For dose-response testing, the cells were seeded in 96-well plates at 7.5×10^3 cells/well in a volume of 50 μL, and incubated at 37° C./5% CO2. Three hours after plating, 50 μL of ten 2-fold serial dilutions of compounds (highest concentration, 75 μM) were added, and cell cultures were incubated at 37° C./5% CO2 in the presence of 0.5% DMSO. Alternatively, compounds were tested at a single concentration of 15 μM. In all cases, Huh-7 cells lacking the HCV replicon served as negative control. The cells were incubated in the presence of compounds for 72 hr after which they were monitored for expression of the NS4A protein by enzyme-linked immunosorbent assay (ELISA). For this, the plates were then fixed for 1 min with acetone/methanol (1:1, v/v), washed twice with phosphate-buffered saline (PBS), 0.1% Tween 20, blocked for 1 hr at room temperature with TNE buffer containing 10% FBS and then incubated for 2 hr at 37° C. with the anti-NS4A mouse monoclonal antibody A-236 (ViroGen) diluted in the same buffer. After washing three times with PBS, 0.1% Tween 20, the cells were incubated 1 hr at 37° C. with anti-mouse immunoglobulin G-peroxidase conjugate in TNE, 10% FBS. After washing as described above, the reaction was developed with O-phenylenediamine (Zymed). The reaction was stopped after 30 min with 2 NH2SO4, and absorbance was read at 492 nm using Sunrise Tecan spectrophotometer. EC50 values were determined from the % inhibition versus concentration data using a sigmoidal non-linear regression analysis based on four parameters with Tecan Magellan software. When screening at a single concentration, the results were expressed as % inhibition at 15 μM.

HCV NS3-NS4A protease = biological target: T1, HCV NS3-NS4A protease (Hepatitis C virus genotype 1b, UniProt P26663); test: HCV Protease Assay (SensoLyte 620 HCV Protease Assay kit); type: biochemical; conditions: 1.2 nM HCV NS3-NS4A protease, 60 min at room temperature, 5% DMSO
T1 construct: made in house
T1 sequence (P26663 1027-1208): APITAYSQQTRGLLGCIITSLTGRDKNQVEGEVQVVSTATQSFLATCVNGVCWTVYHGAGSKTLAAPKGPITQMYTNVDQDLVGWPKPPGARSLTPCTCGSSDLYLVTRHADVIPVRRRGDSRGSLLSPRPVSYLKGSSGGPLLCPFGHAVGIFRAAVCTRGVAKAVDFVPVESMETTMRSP
Method: General procedure: Measurement of the inhibitory effect of compounds on HCV protease activity was performed with the SensoLyte™ 620 HCV Protease Assay kit from AnaSpec, Inc. (San Jose, Calif.) under conditions described by the supplier using 1.2 nM HCV NS3-NS4A protease, which was obtained according to Taremi et al. (Protein Science, 1998, 7, 2143-2149). The compounds were tested at a variety of concentrations in assay buffer containing a final DMSO concentration of 5%. Reactions were allowed to proceed for 60 min at room temperature and fluorescence measurements were recorded with a Tecan Infinity Spectrofluorimeter. The IC50 values were determined from the percent inhibition versus concentration data using a sigmoidal non-linear regression analysis based on four parameters with Tecan Magellan software.

Structure (SMILES)	CC50 [1]	EC50 [2]	IC50 (HCV NS3-NS4A protease)
COc1ccc2c(O[C@H]3C[C@H]4C(=O)N(C)CCCC/C=C\[C@@H]5C[C@@]5(C(=O)NS(=O)(=O)C5(C)CC5)NC(=O)N4C3)cc(-c3nc(C(C)C)cs3)nc2c1Br [Compound 56h, (Z)-(4R,6S,15S,17S)-[17-[8-bromo-7-methoxy-2-(4-isopropylthiazol-2-yl)quinolin-4-yloxy]-13-N-methyl-2,14-dioxo-1,3,13-triazatricyclo[13.3.0.0]octadec-7-en-4-yl]carbonyl(1-methyl-cyclopropyl)sulfonamide]	> 75000 nM	< 1000 nM	< 1000 nM
COc1ccc2c(O[C@H]3C[C@H]4C(=O)N(C)CCCC/C=C\[C@@H]5C[C@@]5(C(=O)NS(=O)(=O)C5(C)CC5)NC(=O)N4C3)cc(-n3ccc(C(C)C)n3)nc2c1C [Compound 91b, (Z)-(4R,6S,15S,17S)-[17-[8-methyl-7-methoxy-2-(3-isopropyl-1H-pyrazol-1-yl)quinolin-4-yloxy]-13-N-methyl-2,14-dioxo-1,3,13-triazatricyclo[13.3.0.0]octadec-7-ene-4-yl]carbonyl(1-methylcyclopropyl)sulfonamide]	10000 to 75000 nM	< 1000 nM	< 1000 nM
COc1cc(C)c2nc(-c3nc(C(C)C)cs3)cc(O[C@H]3C[C@H]4C(=O)N(C)CCCC/C=C\[C@@H]5C[C@@]5(C(=O)NS(=O)(=O)C5(C)CC5)NC(=O)N4C3)c2c1 [Compound 56f, (Z)-(4R,6S,15S,17S)-[17-[6-methoxy-8-methyl-2-(4-isopropylthiazol-2-yl)quinolin-4-yloxy]-13-N-methyl-2,14-dioxo-1,3,13-triazatricyclo[13.3.0.0]octadec-7-en-4-yl]carbonyl(1-methyl-cyclopropyl)sulfonamide]	> 75000 nM	< 1000 nM	< 1000 nM
C#Cc1csc(-c2cc(O[C@H]3C[C@H]4C(=O)N(C)CCCC/C=C\[C@@H]5C[C@@]5(C(=O)NS(=O)(=O)C5CC5)NC(=O)N4C3)c3ccc(OC)c(Cl)c3n2)n1 [Compound G1, (Z)-(4R,6S,15S,17S)-[17-[8-chloro-7-methoxy-2-(4-ethynylthiazol-2-yl)quinolin-4-yloxy]-13-N-methyl-2,14-dioxo-1,3,13-triazatricyclo-[13.3.0.0]octadec-7-en-4-yl]carbonyl(cyclopropyl)sulfonamide]	10000 to 75000 nM	< 1000 nM	< 1000 nM
COc1ccc2c(O[C@H]3C[C@H]4C(=O)N(C)CCCC/C=C\[C@@H]5C[C@@]5(C(=O)NS(=O)(=O)C5(C)CC5)NC(=O)N4C3)cc(-n3ccc(C(F)(F)F)n3)nc2c1Cl [Compound 91a, (Z)-(4R,6S,15S,17S)-[17-[8-chloro-7-methoxy-2-(3-trifluoromethyl-1H-pyrazol-1-yl)quinolin-4-yloxy]-13-N-methyl-2,14-dioxo-1,3,13-triazatricyclo[13.3.0.0]octadec-7-ene-4-yl]carbonyl(1-methylcyclopropyl)sulfonamide]	> 75000 nM	< 1000 nM	< 1000 nM
COc1ccc2c(O[C@H]3C[C@H]4C(=O)N(C)CCCC/C=C\[C@@H]5C[C@@]5(C(=O)NS(=O)(=O)C5(C)CC5)NC(=O)N4C3)cc(-c3cc(C(C)C)on3)nc2c1Cl [Compound 96d, (Z)-(4R,6S,15S,17S)-[17-[8-chloro-7-methoxy-2-(5-isopropylisoxazol-3-yl)quinolin-4-yloxy]-13-N-methyl-2,14-dioxo-1,3,13-triazatricyclo[13.3.0.0]octadec-7-ene-4-yl]carbonyl(1-methylcyclopropyl)sulfonamide]	> 75000 nM	1000 to 10000 nM	< 1000 nM
COc1ccc2c(O[C@H]3C[C@H]4C(=O)N(C)CCCC/C=C\[C@@H]5C[C@@]5(C(=O)NS(=O)(=O)C5CC5)NC(=O)N4C3)cc(-c3nc(C(F)(F)F)cs3)nc2c1Cl [Compound 69d, (Z)-(4R,6S,15S,17S)-[17-[8-chloro-7-methoxy-2-(4-trifluoromethythiazol-2-yl)quinolin-4-yloxy]-13-N-methyl-2,14-dioxo-1,3,13-triazatricyclo[13.3.0.0]octadec-7-en-4-yl]carbonyl(cyclopropyl)sulfonamide]	10000 to 75000 nM	< 1000 nM	< 1000 nM
COc1ccc2c(O[C@H]3C[C@H]4C(=O)N(C)CCCC/C=C\[C@@H]5C[C@@]5(C(=O)NS(=O)(=O)C5CC5)NC(=O)N4C3)cc(-c3nc(C4CCC4)cs3)nc2c1Cl [AC2, (Z)-(4R,6S,15S,17S)-[17-[8-chloro-7-methoxy-2-(4-cyclobutylthiazol-2-yl)quinolin-4-yloxy]-13-N-methyl-2,14-dioxo-1,3,13-triazatricyclo-[13.3.0.0]octadec-7-en-4-yl]carbonyl-(cyclopropyl)sulfonamide]	10000 to 75000 nM	< 1000 nM	< 1000 nM
C#Cc1csc(-c2cc(O[C@H]3C[C@H]4C(=O)N(C)CCCC/C=C\[C@@H]5C[C@@]5(C(=O)NS(=O)(=O)C5(C)CC5)NC(=O)N4C3)c3ccc(OC)c(C)c3n2)n1 [Compound G4, (Z)-(4R,6S,15S,17S)-[17-[7-methoxy-8-methyl-2-(4-ethynylthiazol-2-yl)quinolin-4-yloxy]-13-N-methyl-2,14-dioxo-1,3,13-triazatricyclo-[13.3.0.0]octadec-7-en-4-yl]carbonyl (1-methylcyclopropyl)sulfonamide]	10000 to 75000 nM	< 1000 nM	< 1000 nM
C=Cc1csc(-c2cc(O[C@H]3C[C@H]4C(=O)N(C)CCCC/C=C\[C@@H]5C[C@@]5(C(=O)NS(=O)(=O)C5(C)CC5)NC(=O)N4C3)c3ccc(OC)c(Cl)c3n2)n1 [AH, (Z)-(4R,6S,15S,17S)-[17-[8-chloro-7-methoxy-2-(4-vinylthiazol-2-yl)quinolin-4-yloxy]-13-N-methyl-2,14-dioxo-1,3,13-triazatricyclo-[13.3.0.0]octadec-7-en-4-yl]carbonyl(1-methyl-cyclopropyl)sulfonamide]	10000 to 75000 nM	< 1000 nM	< 1000 nM
COc1ccc2c(O[C@H]3C[C@H]4C(=O)N(C)CCCC/C=C\[C@@H]5C[C@@]5(C(=O)NS(=O)(=O)C5(C)CC5)NC(=O)N4C3)cc(-n3ccc(C(C)C)n3)nc2c1Cl [Compound 91d, (Z)-(4R,6S,15S,17S)-[17-[8-chloro-7-methoxy-2-(3-isopropyl-1H-pyrazol-1-yl)quinolin-4-yloxy]-13-N-methyl-2,14-dioxo-1,3,13-triazatricyclo[13.3.0.0]octadec-7-ene-4-yl]carbonyl(1-methylcyclopropyl)sulfonamide]	> 75000 nM	< 1000 nM	< 1000 nM
COc1ccc2c(O[C@H]3C[C@H]4C(=O)N(C)CCCC/C=C\[C@@H]5C[C@@]5(C(=O)NS(=O)(=O)C5(C)CC5)NC(=O)N4C3)cc(-c3csc(C(F)(F)F)n3)nc2c1Cl [Compound O2, (Z)-(4R,6S,15S,17S)-[17-[8-chloro-7-methoxy-2-(2-trifluoromethylthiazol-4-yl)quinolin-4-yloxy]-13-N-methyl-2,14-dioxo-1,3,13-triazatricyclo-[13.3.0.0]octadec-7-en-4-yl]carbonyl-(1-methylcyclopropyl)sulfonamide]	10000 to 75000 nM	< 1000 nM	< 1000 nM
COc1ccc2c(O[C@H]3C[C@H]4C(=O)N(C)CCCC/C=C\[C@@H]5C[C@@]5(C(=O)NS(=O)(=O)C5CC5)NC(=O)N4C3)cc(-n3ccc(C(C)C)n3)nc2c1C [Compound 91f, (Z)-(4R,6S,15S,17S)-[17-[8-methyl-7-methoxy-2-(3-isopropyl-1H-pyrazol-1-yl)quinolin-4-yloxy]-13-N-methyl-2,14-dioxo-1,3,13-triazatricyclo[13.3.0.0]octadec-7-ene-4-yl]carbonyl(cyclopropyl)sulfonamide]	> 75000 nM	< 1000 nM	< 1000 nM
